# According to patent US7456179B2, “Methods of treating ischemic related conditions” (priority 2003, dated 2008):
# Entries after “also recorded” stand apart in the source; their conditions may differ. Where two headings read alike, the source gives them in different places.
# How the values were obtained:
# Primary cortical neurons [1] = test: H2O2-induced oxidative stress (150 μM), MTS assay, comparison with known neuroprotectants; type: cell-based, rat; details: 24 h pre-treatment, then harsh H2O2 treatment (150 μM)
# Procedure: Primary cortical neurons were isolated from a 17 day old rat embryonic brain and seeded on 96-well plate at 50,000 cells/well in regular neurobasal medium for 2-3 week. Twice, half the amount of medium was replaced with fresh neurobasal medium containing no antioxidants. […] Other known neuroprotectants were dissolved in the proper solvent and diluted into final concentration as indicated. […] Each assay was performed in triplicate. After 24 hours, the cultures were evaluated for viability and mitochondrial function using a standard MTS Assay (Promega). The manufacturer's protocols were followed. Experiments were carried out following the procedures described in the Study Design described above. PAN-811 was dissolved in EtOH at 1 mg/ml (˜5 mM), and further diluted in neurobasal medium to final concentration at 0.1 μM, 1 μM, and 10 μM. Lipoic acid was dissolved in EtOH at concentration 240 mM, and further diluted in the neurobasal medium to final concentration at 10 uM, 25 uM, 50 uM and 100 uM. Vitamin E dissolved in EtOH at concentration 100 mM, and further diluted in the neurobasal medium to final concentration at 50 uM, 100 uM, 200 uM and 400 uM. Ginkgo Biloba was dissolved in dH2O at concentration 6 mg/ml, and further diluted in the neurobasal medium to final concentration at 2.5 ug/ml, 5 ug/ml, 25 ug/ml, 250 ug/ml. At the end of the treatment, the medium was replaced with 100 μl fresh pre-warmed neurobasal medium plus B27 (-AO). The plates were returned to the incubator at 37° C. with 5% CO2 for one hour. Subsequently 20 μl MTS reagent was added to each well and plates were incubated at 37° C. with 5% CO2 for an additional two hours. The absorbance at 490 nm for each well was recorded with the BioRad plate reader (Model 550). Wells containing medium alone were used as blanks. Each data point is the average of three separate assay wells. […] Two weeks old primary cultures were used for this set of study. Please see FIG. 1 for results.
# Cortical neurons [2] = details: for protection from neuronal cell death (morphology): 5 μM, hypoxia, FIG. 4
# Procedure: (§1) Experiments were performed in a 96-well plate format. Cortical neurons were seeded at a density of 50,000 cells/well on poly-D-lysine coated surface, and cultured in serum-free medium (NB plus B27 supplement) to obtain cultures high-enriched for neurons. Neurons were cultured for over 14 d.i.v. to increase cell susceptibility to excitatory amino acids (Jiang et al., 2001). Six replicate wells were treated as a group to facilitate assay quantitation.
# (§2) To mimic the cerebral environments of a stroke, we established 3 in vitro model systems. The extreme H/H model (0.4 mM glucose) is a mimic of the environment in the central core of an infarct; the mild H/H model (1.63 mM glucose) is a mimic of the environment in the penumbra during MCAO; and the hypoxia only model (neurons in normal in vitro glucose concentration—25 mM) is a mimic of the environment in the penumbra after reperfusion since the possible cell death after reperfusion is predominantly a result of the hypoxic effect rather then energy failure.
# (§3) Hypoxia/hypoglycemia was obtained by reducing glucose concentration down to 0.4 mM and 1.63 mM for extreme H/H and mild H/H respectively. BSS (116.0 mM NaCl, 5.4 mM KCl, 0.8 mM MgSO4.7H2O, 1.0 mM NaH2PO4, 1.8 mM CaCl2.2H2O, 26.2 mM NaHCO3, and 0.01 mM Glycine) or BSS with 25 mM glucose were de-gassed for 5 minutes prior to use. Culture medium in the plates for hypoxia was replaced with BSS or BSS with glucose. Meanwhile, culture medium in the plates for normoxia was replaced with non de-gassed BSS or BSS with glucose. Cells were committed to hypoxic conditions by transferring the plates into a sealed container (Modular Incubator Chamber-101TM, Billups-Rothenberg, Inc.), applying a vacuum for 20 minutes to remove O2 or other gases from the culture medium, and then refilling the chamber with 5% CO2 and 95% N2 at a pressure of 30 psi for 1 minute. The level of O2 in the chamber was determined to be zero with an O2 indicator (FYRITE Gas Analyzer, Bacharach, Inc.). Culture plates were maintained in the chamber for 6 hours. As an experimental control, duplicate culture plates were maintained under normal culture condition (5% CO2 and 95% ambient air) for the same duration. After a 6-hour treatment plates were removed from the chamber and the medium in both the hypoxic and normoxic cultures was replaced with a termination solution (DMEM supplemented with 1× sodium pyruvate, 10.0 mM HEPES, and 1×N2 supplement) containing 25 mM glucose and cultured in 5% CO2 and 95% ambient air conditions. […] MK801 was utilized as a positive control. Mitochondrial function and cell death were evaluated at 24 or 48 hours post H/H insult with the MTS and LDH analyses (see below).
# Treatment with drug was continued during and subsequent to a 24-hour period of hypoxia. Cellular morphology and function (MTS and LDH assays) were measured 24 or 48 hours subsequent to the hypoxic insult.
# (§4) The MTS assay is a colorimetric assay that measures the mitochondrial function in metabolically active cells. This measurement indirectly reflects cell viability. […] 20 μl of MTS reagent (Promega) are added to each well of the 96 well assay plates containing the samples in 100 μl of culture medium. The plate is then incubated in a humidified, 5% CO2 atmosphere at 37° C. for 1-2 hours until the color is fully developed. The absorbance at 490 nm was recorded using a Bio-Rad 96 well plate reader.
# Lactate dehydrogenase (LDH) assay is based on the reduction of NAD by the action of LDH.
# Primary cortical neurons [3] = test: H2O2-induced oxidative stress (60-70 μM), MTS assay; type: cell-based, rat; details: 1-10 μM, 24 h pre-treatment, then 60-70 μM H2O2, MTS
# Procedure: Primary cortical neurons were isolated from a 17 day old rat embryonic brain and seeded on 96-well plate at 50,000 cells/well in regular neurobasal medium for 2-3 week. Twice, half amount of medium was replaced with fresh neurobasal medium containing no antioxidants. […] Each assay was performed in triplicate. […] After 24 hours, the cultures were evaluated for viability and mitochondrial function using a standard MTS Assay (Promega). The manufacturer's protocols were followed. Experiments were carried out following the procedures described in the study design. At the end of the treatment, all treatments and medium were replaced with 100 μl fresh pre-warmed neurobasal medium plus B27 (-AO). The plates were put back into the incubator at 37° C. with 5% CO2 for one hour, then 20 μl MTS reagent was added to each well and plates were incubated at 37° C. with 5% CO2 for an additional two hours. The absorbance at 490 nm for each well was recorded with the BioRad plate reader (Model 550). Wells containing medium alone well was used as blanks. Each data point is the average of three separate assay wells. […] Three weeks old primary cultures were used for this set of study. Please see FIG. 10 for results. Experiments were carried out following the same procedures as experiment 1.
# Cortical neurons [4] = details: for protection from mild H/H: pre-treatment 24 h, H/H 6 h
# Procedure: as §1, §2, §3, §4
# Lactate dehydrogenase (LDH) assay is based on the reduction of NAD by the action of LDH. The resulting reduced NAD (NADH) is utilized in the stoichiometric conversion of a tetrazolium dye. If cell-free aliquots of medium from cultures given different treatments are assayed, then the amount of LDH activity can be used as an indicator of relative cell death as well as a function of membrane integrity. A 50 μl aliquot of culture medium from a well in tested 96-well plate is transferred into a well in unused plate and supplemented with 25 μl of equally-mixed Substrate, Enzyme and Dye Solutions (Sigma).
# [5] = test system: male Sprague-Dawley rats, MCAO
# Primary cortical neurons [6] = test: ROS generation, CM-H2DCFDA / c-DCF fluorescence; type: cell-based, rat; details: at 10 μM
# Procedure: Primary cortical neurons were isolated from a 17 day old rat embryonic brain and seeded in 96-well plates at 50,000 cells/well in regular neurobasal medium for 2-3 weeks. Twice, half the amount of medium was replaced with fresh neurobasal medium without antioxidants. […] Untreated cells loaded with the dye were used as controls to calculate the c-DCF fluorescence change. Each assay was performed in triplicate. Experiments were carried out following the procedures described in the Study Design described above. The c-DCF fluorescence at 485/520 nm (Ex/Em) for each well was recorded with the BMG polar star plate reader. Wells containing cells without dye were used as blanks. Each data point is the average of three separate assay wells. Untreated cells loaded with the dye were used as a control to calculate the c-DCF fluorescence change. Two weeks old primary cultures were used for the study.
# Cortical neurons [7] = test: Extreme hypoxia/hypoglycemia (H/H) model (0.4 mM glucose)
# Procedure: as §1
# To mimic the cerebral environments of a stroke, we established 3 in vitro model systems. […]
# Hypoxia/hypoglycemia was obtained by reducing glucose concentration down to 0.4 mM and 1.63 mM for extreme H/H and mild H/H respectively. […] The level of O2 in the chamber was determined to be zero with an O2 indicator (FYRITE Gas Analyzer, Bacharach, Inc.). […] Mitochondrial function and cell death were evaluated at 24 or 48 hours post H/H insult with the MTS and LDH analyses (see below).
# The MTS assay is a colorimetric assay that measures the mitochondrial function in metabolically active cells. […] The absorbance at 490 nm was recorded using a Bio-Rad 96 well plate reader. […]
# [8] = test system: enriched neuronal cultures (cerebellar tissue); test: Neurotoxicity of PAN-811, MTT assay; details: 24 hrs
# Procedure: Neuronal culture. Enriched neuronal cultures were prepared from 15-day-old Sprague-Dawley rat embryos. Using aseptic techniques, the rat embryos were removed from the uterus and placed in sterile neuronal culture medium. Using a dissecting microscope, the brain tissue was removed from each embryo, with care taken to discard the meninges and blood vessels. […] Cells were dissociated by trituration of the tissue and were plated at a density of 5×10^5 cells/well onto 48-well culture plates precoated with poly(L-lysine). […]
# 3.3.1.2 Neurotoxicity of PAN-811. […] Cell viability was determined in the MTT assay.
# 3.1.3.4 MTT Assay. […] Cell damage was quantitatively assessed using a tetrazolium salt colorimetric assay with 3-(4,5-dimethylthiazol-2-yl)-2,5-diphenyltetrazolium (MTT; Sigma Chemical Co., St. Louis, Mo.). Briefly, the dye was added to each well (final concentration, 1.5 mg/ml), cells were incubated with MTT-acidified isopropanol (0.1 N HCl in isopropanol), and the absorbance intensity (540 nm) of each sample was measured in a 96-well plate reader. Values are expressed relative to vehicle-treated control cells that were maintained on each plate, and the percentage change in cell viability was calculated.
# [9] = Solubility of PAN-811 in solvents; details: PEG-300/EtOH (70%/30%) versus EtOH
# Procedure: PAN-811 was dissolved in either EtOH or DMSO at 1 mg/ml (˜5 mM), in PEG-300/EtOH (70%/30%) at 5 mg/ml (˜25 mM), and further diluted in medium to final concentration at 1 μM, 5 μM, 20 μM and 50 μM. […] Equal volume of solvents (EtOH, DMSO, and PEG-300/EtOH) was added to cells to test the solvent effects on the assay.
# [10] = test system: enriched neuronal cultures (cerebellar tissue); test: In vitro models of excitotoxicity (H/H, glutamate, staurosporine, veratridine), MTT assay; details: MTT 24 hrs after insult
# Procedure: Neuronal culture. Enriched neuronal cultures were prepared from 15-day-old Sprague-Dawley rat embryos. Using aseptic techniques, the rat embryos were removed from the uterus and placed in sterile neuronal culture medium. Using a dissecting microscope, the brain tissue was removed from each embryo, with care taken to discard the meninges and blood vessels. […] Cells were dissociated by trituration of the tissue and were plated at a density of 5×10^5 cells/well onto 48-well culture plates precoated with poly(L-lysine). Cultures were maintained in a medium containing equal parts of Eagle's basal medium (without glutamine) and Ham's F-12k medium supplemented with 10% heat-inactivated horse serum, 10% fetal bovine serum, 600 μg/ml glucose, 100 μg/ml glutamine, 50 U/ml penicillin, and 50 μg/ml streptomycin. After 48 h, 10 μM cytosine arabinoside was added to inhibit non-neuronal cell division. Cells were used in experiments after 7 days in culture.
# Four in vitro models of excitotoxicity were studied. Cells were either exposed to H/H conditions for 3 hrs or treated for 45 min with either glutamate (100 μM), staurosporine (1 μM) or veratridine (10 μM). All cells were cotreated with or without PAN-811 (10 μM) in Locke's solution. At the conclusion of the respective excitotoxic exposures, the condition medium (original) was replaced. H/H was induced by incubating the cells in a humidified airtight chamber saturated with 95% nitrogen, 5% CO2 gas for 3 hrs. in Locke's solution without added glucose.
# 24 hrs. after the excitotoxic insult cell viability assessments were made. Cell damage was quantitatively assessed using a tetrazolium salt colorimetric assay with 3-(4,5-dimethylthiazol-2-yl)-2,5-diphenyltetrazolium (MTT; Sigma Chemical Co., St. Louis, Mo.). Briefly, the dye was added to each well (final concentration, 1.5 mg/ml), cells were incubated with MTT-acidified isopropanol (0.1 N HCl in isopropanol), and the absorbance intensity (540 nm) of each sample was measured in a 96-well plate reader. Values are expressed relative to vehicle-treated control cells that were maintained on each plate, and the percentage change in cell viability was calculated.
compound,measurement,setting,value
"O=C(O)CCCC[C@@H]1CCSS1 (racemic) [Lipoic acid, reference compound]",neuroprotective capacity,Primary cortical neurons [1]; known neuroprotectants,minimal neuroprotective capacity
"C[C@]12N[C@H](Cc3ccccc31)c1ccccc12 [MK801, reference compound]",protection from neuronal cell death (morphology),Cortical neurons [2],efficient protection from neuronal cell death
"NC(=S)N/N=C/c1ncccc1N [PAN-811, 3-aminopyridine-2-carboxaldehyde thiosemicarbazone]",neuroprotective capacity,Primary cortical neurons [3],good neuroprotective capacity
same,protection from mild H/H,"Cortical neurons [4]; 2 μM, Apr. 17, 2003, culture age 13 days, 48 h post H/H",100% protected
same,protection from mild H/H,"Cortical neurons [4]; 2 μM, Jul. 9, 2003, culture age 13 days, 20 h post H/H",100% protected
same,protection from mild H/H,"Cortical neurons [4]; 2 μM, May 2, 2003, culture age 22 days, 24 h post H/H",100% protected
same,protection from mild H/H,"Cortical neurons [4]; 2 μM, May 8, 2003, culture age 42 days, 24 h post H/H",100% protected
same,protection from H/H-induced mitochondria dysfunction and neuronal cell death,"Cortical neurons [4]; 5 μM, 24 hours before and during 6-hour H/H, 15-day culture, MTS and LDH 17 hours post",completely protected
same,protection from mild H/H,"Cortical neurons [4]; 5 μM, Jul. 25, 2003, culture age 15 days, 24 h post H/H, test range started from 5 μM",100% protected
same,protection from mild H/H,"Cortical neurons [4]; 10 μM, Jul. 13, 2003, culture age 15 days, 24 h post H/H, test range started from 5 μM",100% protected
same,protection from mild H/H induced neurotoxicity,Cortical neurons [4]; at 2 μM,completely protected
same,protection from neuronal cell death (LDH),"Cortical neurons [4]; treatment 24 h before 6-hour H/H only, LDH 48 hours after H/H",marginally
same,range of infarct volume,"[5]; 1 mg/kg IV 10 minutes prior to 2 h MCAO, 24 hours after surgery",42.36-387.08 mm^3
same,mean infarct volume,"[5]; 1 mg/kg IV 10 minutes prior to 2 h MCAO, 24 hours after surgery, n 14",225.85 mm^3
same,% protection (reduction in average infarct volume vs vehicle),"[5]; 1 mg/kg IV 10 minutes prior to MCAO, p<0.05",23%
same,rats that died (of 7 deaths from severe stroke or SAH),"[5]; 1 mg/kg IV, 6 of the 7 deaths were vehicle rats",1 rat
same,tolerability / toxicity,"[5]; rat, in vivo",well tolerated and relatively non-toxic
same,reduction of the basal level of ROS generation,Primary cortical neurons [6],~50%
same,reduction of H2O2-induced ROS generation,"Primary cortical neurons [6]; 1 h, then 300 μM H2O2 for 2 hours",~30%
same,neuroprotective capacity,Primary cortical neurons [1]; PAN-811 at 1-10 μM,good neuroprotective capacity; also recorded: significant neuroprotection
same,block of neuronal cell death and mitochondrial dysfunction,"Cortical neurons [2]; 2 μM, 24 hours prior to, during and subsequent to 24-hour hypoxia",completely blocking neuronal cell death and mitochondrial dysfunction
same,block of hypoxia-induced cell death,"Cortical neurons [2]; 2 μM, 48 h prior to, during 24-hour hypoxia and 48 h subsequent",completely blocked the cell death
same,protection from neuronal cell death (morphology),Cortical neurons [2],efficient protection from neuronal cell death
same,protection from sole hypoxia-induced neurotoxicity,Cortical neurons [2]; at 2 μM,completely protected
same,block of extreme H/H-induced neuronal cell death,Cortical neurons [7]; at 100 μM,only partially blocked
same,protection from neuronal cell death,"Cortical neurons [7]; at ≦50 μM, extreme H/H (data not shown)",did not protect neuronal cell death
same,neurotoxicity,[8]; concentrations up to 100 μM,only slight toxicity
same,maximal toxicity,[8]; highest concentration tested (100 μM),7.8%
same,solubility,[9],better solubility in PEG-300/EtOH comparing to EtOH alone
same,protection from damage by staurosporine,"[10]; 10 μM PAN-811, 1 μM staurosporine 45 min",~47%
same,protection from damage by veratridine,"[10]; 10 μM PAN-811, 10 μM veratridine 45 min",~39%
same,protection from damage by glutamate,"[10]; 10 μM PAN-811, 100 μM glutamate 45 min",~75%
same,protection from damage by hypoxia/hypoglycemia,"[10]; 10 μM PAN-811, 3 hour H/H",92%
Vitamin E [reference compound],neuroprotective capacity,Primary cortical neurons [1]; known neuroprotectants,minimal neuroprotective capacity
